This is an account of results in patent US20130157949A1, “Novel Peptides for Wound Healing” (GENE SIGNAL INTERNATIONAL SA, priority 2010, published 2013).

One experiment has as its system trans-dermal wounds. As to the kind of experiment: wound healing of trans-dermal wounds in mice, topical application. It counts as in vivo. The note with it: for speed of wound healing compared with Vehicle / 156A protein: topical 0.5 mg/ml, time course over 4 days; for % healing at day 1 post treatment / % healing at day 2 post treatment / % healing at day 3 post treatment / % healing at day 4 post treatment: topical 0.5 mg/ml (5 mg/kg), 1 application/day, 5 mm punch wounds. The protocol: The vehicle (Batch A) was administered by topical application at a standardized volume of 10 ml/kg for all applications. The peptides of the invention, the protein 156A or the peptides 2, 6 and 9 were administered by topical application at the concentration of 0.5 mg/ml in the vehicle. The protocols of treatment were as it follows: • Group 1: (Batch A, Vehicle): 1 topical application 10 minutes after wounding • Group 2: (Peptide 7, 0.5 mg/ml): 1 topical application 10 minutes after wounding • Group 3: (Peptide 10, 0.5 mg/ml): 1 topical application 10 minutes after wounding • Group 4: (Peptide 11, 0.5 mg/ml): 1 topical application 10 minutes after wounding • Group 5: (Peptide 7B, 0.5 mg/ml): 1 topical application 10 minutes after wounding. • Group 6: (Peptide 2, 0.5 mg/ml): 1 topical application 10 minutes after wounding. • Group 7: (Peptide 6, 0.5 mg/ml): 1 topical application 10 minutes after wounding. • Group 8: (Peptide 9, 0.5 mg/ml): 1 topical application 10 minutes after wounding. • Group 9: (Protein 156A, 0.5 mg/mL): 1 topical application 10 minutes after wounding.
Healthy female BALBC Swiss mice were anesthetized by IP injection of Ketamine-Xylazine (80 mg/kg-12 mg/kg; Ref. K-113, Sigma, France). Two trans-dermal wounds, each of 5 mm in width and about 1 to 2 mm in depth were realized in the right and the left flanks of each mouse using 5 mm punch.
At D1, and 10 min post-injury of the animals, the mice were randomized into 9 groups of 3 mice each.
All treatments were realized by topical application at the frequency of 1 topical application/day, for 4 days. Animals of group 1 were treated with the vehicle solution (Batch A). Animals of groups 2 to 9 were treated with the indicated peptide or with the 156A protein at a dose of 5 mg/kg.

Experiment [1] has as its system human microvascular endothelial cells (HMEC). As to the kind of experiment: in vitro angiogenesis assay (Matrigel, endothelial tube formation). It is filed as cell-based. The note with it: for in vitro angiogenesis-inducing activity: 400 μg/ml final concentration, images at 6 h post incubation; for classification of in vitro angiogenesis inducing activity: 400 μg/ml, rank order among peptides. Here is the method: Angiogenesis of human microvascular endothelial cells (HMEC) was induced in vitro using a Matrigel assay described by Grant et α1 (1989, Cell, 1989; 58:933). This method is based on the differentiation of endothelial cells to form capillary structures on a Matrigel Matrix. Matrigel is prepared the Engelbreth-Holm-Swarm (EHS) mouse tumor, which represents a complex mixture of basement membrane proteins including type IV collagen, entactin, proteo-heparan sulfate and other growth factors.
Briefly, 250 μl of Matrigel were transferred to each well of a 24-well culture plate and incubated at 37° C. for 30 min to allow for the matrix solution to solidify. HMEC grown in complete growth medium EGM-2MV were harvested by trypsin, suspended in the same growth medium and 500 μl containing 70 000 cells were added on top of the solidified Matrigel in each well and in the presence or absence of protein. Cells were maintained in a humidified atmosphere air containing 5% CO2 at 37° C. for 18-24 hrs. Endothelial tube formation was observed and photographed under an inverted light microscope.
The designed small peptides 7 (SEQ ID NO: 1), 10 (SEQ ID NO: 3), and 11 (SEQ ID NO: 4) were synthesized and tested for their in vitro angiogenesis-inducing activities (as described in Methods here above).
The results of the in vitro angiogenesis assay were presented in FIG. 1, using HMEC and 400 μg/ml final concentration of each peptide. Images were taken at 6 h post incubation.

The next experiment has as its system VEGFA mRNA. Nature of the experiment: VEGFA expression by real time quantitative PCR in HMEC. It counts as cell-based, human. The following applies: 400 μg/ml, 6 h, QPCR. Here is the method: After exposure to the indicated concentrations of peptide 7 or peptide 10 issued from the recombinant protein GS-156A or vehicle for 24 h, HMEC (5×10^5 cells/ml), total mRNA were isolated using NucleoSpin RNA II kit. RNA yields and purity were assessed by spectrophotometric analysis. The real-time RT-PCR was performed as previously described (Voghel et al., 2008). […] The real-time PCR reactions were carried out with the DNA Engine OPTICON 2 continuous fluorescence detector (MJ Research, Waltham, Mass., U.S.A.). The results were quantified using the equation: CopyTF:CopyGAPDH=2C(t)GAPDH−C(t)TF. All PCR products were analyzed by electrophoresis on a 1.5% agarose gel, visualized with ethidium bromide, and analyzed using the Genesnap 6.00.26 software (Syngene, Cambridge, U.K.). […]
The influence of peptide 7 and peptide 10 on VEGFA expression was investigated. For that, HMEC were incubated with either peptide 7 (400 μg/ml final concentration), or peptide 10 (400 μg/ml final concentration) for 6 h, followed by measuring the expression of VEGFA by real time quantitative PCR (QPCR).

The test system of another experiment is Protein Kinase B (Akt). As to the kind of experiment: activation status of protein kinase B (pAkt) by western-blot in HMEC. It counts as cell-based, human. The note with it: 400 μg/ml, 10 min and 30 min post incubation, immunoblot. Here is the method: The activation status of pAkt was determined by western-blot using an anti-phosphoserine 473 pAkt antibody, and anti-GAPDH mAb as internal standard.
The status of Akt in the HMEC following incubation with either peptide 7 or peptide 10 was investigated.
For orientation: In western blotting, separated proteins are transferred to a membrane and probed.

The next experiment relates to MAPK (Erk1 and 2). As to the kind of experiment: activation status of MAPK (pErk1/2) by western-blot in HMEC. It is filed as cell-based, human. The following applies: immunoblot pErk1/2. Here is the method: The activation status of MAPK was determined by western-blot using an anti-activated MAPK (pErk1/2) antibody, and anti-GAPDH mAb as internal standard.
We have also investigated the status of the mitogen activated protein kinase (MAPK), as it is well established that it represents another cascade of intracellular signaling could be implicated in the regulation of VEGF expression.

The next experiment relates to VEGFA protein. As to the kind of experiment: VEGFA protein by sandwich ELISA in HMEC culture medium. It counts as cell-based, human. The protocol:
Serum-deprived HMEC were incubated with different concentrations of peptide 7 or peptide 10 or vehicle […]. After 3 washes with ice-cold PBS, cells were suspended with the protein extraction buffer (PEB) (20 mM Tris-HCl pH 7.5, 150 mM NaCl, 1 mM EDTA, 1 mM EGTA, 1% Triton, 25 mM sodium pyrophosphate, 1 mM β-glycero-phosphate, 1 mM Na3Vo4, 1 μg/ml leupeptine, 1 μM PMSF). The protein content was measured by Bradford. VEGFA concentration in the culture medium or in the extracts was determined by human VEGFA Sandwich ELISA kit (Cell Signaling technology) according to the manufacturer's instructions.
(ELISA stands for enzyme-linked immunosorbent assay.)

Experiment [2] has as its system trans-dermal wounds in diabetic mice. Nature of the experiment: wound healing in diabetic mice, subcutaneous injection beneath the wound. It is filed as in vivo, ob/ob C57BL6/J mice. The note with it: 2 mg/ml or 5 mg/ml, sb injection 200 μl/day for 4 days, 8 mm punch wounds. The protocol:
Diabetic female ob/ob C57BL6/J mice were anesthetized by IP injection of Ketamine-Xylazine (80 mg/kg-12 mg/kg; Ref. K-113, Sigma, France). Two trans-dermal wounds, each of 8 mm in width and about 1 to 2 mm in depth were realized in the right flank of each mouse using 8 mm punch.
At D1, and 10 min post-injury of the animals, the mice were randomized into 3 groups of 5 mice each.
All treatments were realized by subcutaneous (sb) injections beneath the wounded area at the frequency of 1 sb injection/day, for 4 days. Animals of group 1 were injected with the vehicle solution (Batch A; 200 μl/injection, beneath the wounded area). Animals of groups 2 were sb injected with P7 solution in vehicle (2 mg of P7/ml of vehicle) (200 μl/injection; 16 mg/kg; beneath the wounded area). Animals of groups 3 were sb injected with P7 solution in vehicle (5 mg of P7/ml of vehicle) (200 μl/injection; 40 mg/kg; beneath the wounded area).

Regarding “RLNRSDSDSSTLAKK [Peptide 2, comparative fragment of the 156A protein without enhanced efficiency]”, in the experiment on trans-dermal wounds, the “speed of wound healing compared with Vehicle / 156A protein” value is listed as “healed slower than the wounds treated with Vehicle”.
Still for that read-out and setting: to “FQRLLKQ [Peptide 9, comparative fragment of the 156A protein without enhanced efficiency]” belongs “healed slower than the wounds treated with Vehicle”.
As to “QSQKVPRQVQS [Peptide 11, fragment of the protein 156A, chemically synthesized]”, in experiment [1], the “in vitro angiogenesis-inducing activity” value is given as “strong in vitro angiogenesis-inducing activity” and the “classification of in vitro angiogenesis inducing activity” value (from here on “classification”) is “peptide 7>peptide 10>peptide 11”. In addition, in the experiment with trans-dermal wounds, the “% healing at day 1 post treatment” value is 41.9%, the “% healing at day 2 post treatment” value worked out at 52.1%, the “% healing at day 3 post treatment” value was 58.4% and the “% healing at day 4 post treatment” value is 64.4%. For the same substance, the “speed of wound healing compared with Vehicle / 156A protein” value in the experiment with trans-dermal wounds is reported as “healed faster than the wounds treated with Vehicle or with the 156A protein”.
For the substance “ELDLQASL [Peptide 7B, fragment of the protein 156A, chemically synthesized]”, in the experiment with trans-dermal wounds, the “% healing at day 1 post treatment” value is 33.2%, the “% healing at day 2 post treatment” value turned out to be 56.9%, the “% healing at day 3 post treatment” value is given as 63.7% and the “% healing at day 4 post treatment” value is recorded as 76.6%. For the same substance, in the experiment with trans-dermal wounds, the “speed of wound healing compared with Vehicle / 156A protein” value is listed as “healed faster than the wounds treated with Vehicle or with the 156A protein”.
Turning to “VSKDVCRL [Peptide 10, fragment of the protein 156A, chemically synthesized]”, in experiment [1], the “in vitro angiogenesis-inducing activity” value is reported as “strong in vitro angiogenesis-inducing activity” and the “classification” value is recorded as “peptide 7>peptide 10>peptide 11”. Moreover, in the experiment with trans-dermal wounds, the “% healing at day 1 post treatment” value was found to be 42.8%, the “% healing at day 2 post treatment” value came to 61.3%, the “% healing at day 3 post treatment” value was found to be 65.6% and the “% healing at day 4 post treatment” value is given as 78.9%. Besides, the “speed of wound healing compared with Vehicle / 156A protein” value in the experiment on trans-dermal wounds is recorded as “healed faster than the wounds treated with Vehicle or with the 156A protein”. In addition, the “VEGFA mRNA higher than Control (no peptide)” value with VEGFA mRNA was “about 60%”. The “level of activated Akt relative to Control” value in the experiment with Protein Kinase B (Akt) is “much higher level of activated Akt”. The “level of activation of Erk1 and 2 (MAPK) relative to Control” value with MAPK (Erk1 and 2) is “not significant variations in level of activation of Erk1 and 2”.
As for “RSLRVKRTVCQSVLR [Peptide 6, comparative fragment of the 156A protein without enhanced efficiency]”, the “speed of wound healing compared with Vehicle / 156A protein” value with trans-dermal wounds is on record as “healed slower than the wounds treated with Vehicle”.
Take “TQECPVRTSLDRELDLQASL [Peptide 7, fragment of the protein 156A, chemically synthesized]”: in experiment [1], the “in vitro angiogenesis-inducing activity” value was “strong in vitro angiogenesis-inducing activity” and the “classification” value is recorded as “peptide 7>peptide 10>peptide 11”. Moreover, in the experiment on trans-dermal wounds, the “% healing at day 1 post treatment” value is recorded as 52.8%, the “% healing at day 2 post treatment” value is on record as 60.1%, the “% healing at day 3 post treatment” value came to 65.6% and the “% healing at day 4 post treatment” value is recorded as 82.9%. For the same substance, the “speed of wound healing compared with Vehicle / 156A protein” value in the experiment on trans-dermal wounds is listed as “healed faster than the wounds treated with Vehicle or with the 156A protein”. The “VEGFA mRNA higher than Control (no peptide)” value in the experiment with VEGFA mRNA is “about 170%”. Besides, the “increases of VEGFA-biosynthesis and excretion” value in the experiment on VEGFA protein (400 μg/ml) is given as “about 2 folds”. Further, in the experiment with VEGFA protein (400 μg/ml of peptide, p<0.001), the “increase in VEGF protein within the culture medium (peak)” value is “about 97%”. Moreover, the “level of activated Akt relative to Control” value with Protein Kinase B (Akt) is listed as “much higher level of activated Akt”. Moreover, the “level of activation of Erk1 and 2 (MAPK) relative to Control” value in the experiment with MAPK (Erk1 and 2) is “not significant variations in level of activation of Erk1 and 2”. Besides, the “healing of the wounds in diabetic mice compared to control” value in experiment [2] was “strong healing of the wounds”.
